Laboratory results taken from patent US20140128352A1, “COMPOUNDS AND METHODS FOR MODULATING MITOCHONDRIAL METABOLISM AND REACTIVE OXYGEN SPECIES PRODUCTION” (Buck Institute for Research on Aging, priority 2012, published 2014).
Read-outs that look alike come from different tables or passages of the source.

Tests used:
[1] = system: ubiquinone binding site of complex I (IQ); assay: High-throughput screen: ROS production from ubiquinone binding site of complex I (IQ), isolated skeletal muscle mitochondria; type: biochemical, rat; settings: for % Reduction in ROS production (IQ): Table 2, 5 mM succinate, compounds 2.5 μM, percent change from DMSO, positive control −100%; for IQ: percent change in ROS from DMSO controls
Procedure: (§1) Skeletal muscle mitochondria were isolated from 5-8 week old female Wistar rats (Harlan Laboratories). Minced muscle was homogenized in buffer containing bacterial protease Type VIII prior to differential centrifugation to separate mitochondria from other tissue components. Unless otherwise stated, freshly isolated muscle mitochondria were assayed in buffer containing 120 mM KCl, 5 mM HEPES, 1 mM EGTA, 0.3% (w/v) bovine serum albumin. Where indicated, CaCl2 was added to yield a final free concentration of 250 nM calcium at pH 7.0 at 37° C.
(§2) Compounds (10 mM in DMSO) were randomly selected from a library of 24,000 compounds obtained from ChemBridge and curated by the lab of Robert Hughes at the Buck Institute. Master screening plates were prepared using a Biomek FX liquid handling workstation (Beckman) to transfer 1 μL of each compound into individual wells on 96-well storage plates (80 compounds per plate). Master plates were sealed with foil and stored at −80° C. Just prior to use, plates were brought to room temperature and diluted 300-fold with standard buffer (13.3X=33.3 μM). To monitor the performance of each assay throughout screening and to provide intra-plate normalization reference points, DMSO negative controls and known mitochondrial inhibitor positive controls were included on each Master compound plate.
(§3) Total amounts of superoxide and H2O2 production were determined fluorometrically as H2O2, without distinguishing between them, in the presence of exogenous superoxide dismutase (25 units/mL final), horseradish peroxidase (1 unit/mL final), and Amplex UltraRed (25 μM final) as described (Affourtit, C. et al. (2012) Measurement of proton leak and electron leak in isolated mitochondria. Methods Mol. Biol. 810: 165-82). Just prior to use, a bulk 3.3X solution was made in standard buffer and distributed into a 2 mL deep well 96-well transfer plate.
To assess the effects of a compound on ROS production from the ubiquinone binding site of complex I (IQ), Start Solution containing 5 mM succinate was distributed into standard 96-well transfer plates. A Biomek FX workstation was programmed to dispense solutions into black 96-well assay plates. Solutions were dispensed to all assay plates in the following order: ROS Detection solution described in Example 3, Mitochondria solution described in Example 1 to a final concentration of 0.1 mg/ml, and Compound dilutions described in Example 2. Duplicate assay plates were made and each was initiated by the addition of 3.3X Start solution containing 5 mM succinate. Plates were incubated in the dark at room temperature for 30-40 minutes before acquiring endpoint fluorescence using a Victor 3V plate reader (Perkin Elmer) equipped with 550/590 nm excitation/emission filters.
The fluorescence values in each well were scaled as the percent change from the intra-plate DMSO controls with the appropriate inhibitor positive controls defined as −100%. Following initial scaling, intra-plate normalized values were subjected to Tukey's two-way median polish to remove row and column dependent positional effects (Malo et al, 2006).

[2] = target: T1, outer ubiquinone binding site of complex III (IIIQO) (Rattus norvegicus, UniProt P00159+P20788); assay: High-throughput screen: ROS production from outer ubiquinone binding site of complex III (IIIQO); type: biochemical; settings: for inhibition at 2.5 µM / IIIQO: percent change in ROS from DMSO controls; for IIIQO: Table 8
T1 construct: freshly isolated muscle mitochondria were assayed; from tissue; host or cells: rat skeletal muscle mitochondria (Wistar, Harlan Laboratories)
Procedure: as §1, §2, §3
To assess the effects of a compound on ROS production from the outer ubiquinone binding site of complex III (IIIQO), Start Solution containing 5 mM succinate, 4 μM rotenone and 2.5 μM antimycin A was distributed into standard 96-well transfer plates. A Biomek FX workstation was programmed to dispense solutions into black 96-well assay plates. Solutions were dispensed to all assay plates in the following order: ROS Detection solution described in Example 3, Mitochondria solution described in Example 1 to a final concentration of 0.1 mg/ml, and Compound dilutions described in Example 2. Duplicate assay plates were made and each was initiated by the addition of 3.3X Start solution containing 5 mM succinate, 4 μM rotenone and 2.5 μM antimycin A. Plates were incubated in the dark at room temperature for 30-40 minutes before acquiring endpoint fluorescence using a Victor 3V plate reader (Perkin Elmer) equipped with 550/590 nm excitation/emission filters.
The fluorescence values in each well were scaled as the percent change from the intra-plate DMSO controls with the appropriate inhibitor positive controls defined as −100%. Following initial scaling, intra-plate normalized values were subjected to Tukey's two-way median polish to remove row and column dependent positional effects (Malo et al., 2006).

[3] = target: T2, flavin binding site of complex I (IF) (Rattus norvegicus, UniProt Q5XIH3); assay: High-throughput screen: ROS production from flavin binding site of complex I (IF); type: biochemical; settings: for inhibition at 2.5 µM: Table 7, read-out: IF; for inhibition at 2.5 µM / IF: percent change in ROS from DMSO controls
T2 construct: freshly isolated muscle mitochondria were assayed; from tissue; host or cells: rat skeletal muscle mitochondria (Wistar, Harlan Laboratories)

[4] = system: mitochondrial membrane potential (ΔΨm); assay: Membrane potential (ΔΨm) counterscreen with TMRM; settings: malate, nigericin
[5] = target: T3, succinate dehydrogenase/complex II (SDH) (Rattus norvegicus, UniProt P21913+Q641Z9+Q6PCT8+Q920L2); assay: High-throughput screen: ROS production from succinate dehydrogenase/complex II (SDH); type: biochemical; settings: percent change in ROS from DMSO controls; for inhibition at 2.5 µM: Table 7
T3 construct: freshly isolated muscle mitochondria were assayed; from tissue; host or cells: rat skeletal muscle mitochondria (Wistar, Harlan Laboratories)

[6] = target: T4, glycerol-3-phosphate dehydrogenase (GPDH) (Rattus norvegicus, UniProt P35571); assay: High-throughput screen: ROS production from glycerol-3-phosphate dehydrogenase (GPDH); type: biochemical; set-up: inhibition: dose or concentration left out as unconfirmed; settings: for inhibition: Table 7; for inhibition / GPDH: percent change in ROS from DMSO controls
T4 construct: The activity of GPDH in intact mitochondria (0.3 mg/mL) was measured; from tissue; host or cells: rat skeletal muscle mitochondria (Wistar, Harlan Laboratories)
T4 sequence (P35571 43-727): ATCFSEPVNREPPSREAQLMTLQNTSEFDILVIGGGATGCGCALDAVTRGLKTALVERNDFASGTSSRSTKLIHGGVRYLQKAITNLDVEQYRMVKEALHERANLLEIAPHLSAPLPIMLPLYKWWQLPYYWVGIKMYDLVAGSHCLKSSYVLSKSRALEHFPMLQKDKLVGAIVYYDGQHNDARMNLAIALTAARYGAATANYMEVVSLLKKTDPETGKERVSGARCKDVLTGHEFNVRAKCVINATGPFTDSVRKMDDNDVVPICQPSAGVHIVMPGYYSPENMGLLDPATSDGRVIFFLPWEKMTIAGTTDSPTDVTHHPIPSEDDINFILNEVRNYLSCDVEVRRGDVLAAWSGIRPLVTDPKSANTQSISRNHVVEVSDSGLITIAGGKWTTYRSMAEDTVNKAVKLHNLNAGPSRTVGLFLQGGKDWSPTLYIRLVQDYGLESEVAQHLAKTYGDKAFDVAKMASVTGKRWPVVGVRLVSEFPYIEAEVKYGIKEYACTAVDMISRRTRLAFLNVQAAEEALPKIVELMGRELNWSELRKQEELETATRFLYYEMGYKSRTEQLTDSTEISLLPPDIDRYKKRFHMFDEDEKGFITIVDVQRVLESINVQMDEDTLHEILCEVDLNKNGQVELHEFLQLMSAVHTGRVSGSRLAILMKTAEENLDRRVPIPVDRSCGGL

T2 sequence (Q5XIH3 21-464 limits assumed, one chain of several): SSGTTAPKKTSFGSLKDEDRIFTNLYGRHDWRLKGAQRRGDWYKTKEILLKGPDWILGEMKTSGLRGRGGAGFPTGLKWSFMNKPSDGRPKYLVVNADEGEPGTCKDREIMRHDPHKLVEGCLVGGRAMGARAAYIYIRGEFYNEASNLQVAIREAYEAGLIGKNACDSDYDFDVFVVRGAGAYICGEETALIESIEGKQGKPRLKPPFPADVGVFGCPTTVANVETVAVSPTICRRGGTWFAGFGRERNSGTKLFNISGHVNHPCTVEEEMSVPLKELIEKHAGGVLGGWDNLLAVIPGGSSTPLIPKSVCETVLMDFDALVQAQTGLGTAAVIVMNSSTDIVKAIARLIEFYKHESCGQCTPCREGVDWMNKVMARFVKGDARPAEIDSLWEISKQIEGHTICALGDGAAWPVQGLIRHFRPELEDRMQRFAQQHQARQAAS
T3 sequence (Q920L2 35-656): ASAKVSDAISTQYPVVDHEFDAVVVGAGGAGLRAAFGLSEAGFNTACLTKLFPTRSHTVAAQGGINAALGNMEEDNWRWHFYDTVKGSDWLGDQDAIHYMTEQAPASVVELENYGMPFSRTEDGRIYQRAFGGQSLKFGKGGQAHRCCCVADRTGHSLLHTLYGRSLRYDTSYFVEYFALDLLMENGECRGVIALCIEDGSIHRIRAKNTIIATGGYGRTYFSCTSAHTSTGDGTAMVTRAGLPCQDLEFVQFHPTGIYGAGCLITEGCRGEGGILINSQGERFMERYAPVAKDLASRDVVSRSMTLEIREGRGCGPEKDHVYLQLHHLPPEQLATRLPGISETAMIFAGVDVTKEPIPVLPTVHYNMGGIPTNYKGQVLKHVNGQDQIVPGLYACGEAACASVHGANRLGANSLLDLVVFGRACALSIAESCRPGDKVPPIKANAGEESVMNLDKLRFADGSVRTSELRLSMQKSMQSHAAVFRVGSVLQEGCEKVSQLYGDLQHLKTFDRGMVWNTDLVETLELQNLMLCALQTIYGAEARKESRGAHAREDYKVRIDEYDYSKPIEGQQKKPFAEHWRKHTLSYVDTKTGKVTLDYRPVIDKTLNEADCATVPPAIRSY
T3 sequence (P21913 31-282): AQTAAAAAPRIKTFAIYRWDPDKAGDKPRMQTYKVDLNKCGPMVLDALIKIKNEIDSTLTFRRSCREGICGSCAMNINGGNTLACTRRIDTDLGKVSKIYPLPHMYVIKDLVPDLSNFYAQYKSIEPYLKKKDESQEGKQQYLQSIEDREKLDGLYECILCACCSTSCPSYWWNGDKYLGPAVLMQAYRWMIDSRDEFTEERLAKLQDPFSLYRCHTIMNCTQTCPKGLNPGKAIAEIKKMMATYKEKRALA
T3 sequence (Q641Z9 30-169 limits assumed): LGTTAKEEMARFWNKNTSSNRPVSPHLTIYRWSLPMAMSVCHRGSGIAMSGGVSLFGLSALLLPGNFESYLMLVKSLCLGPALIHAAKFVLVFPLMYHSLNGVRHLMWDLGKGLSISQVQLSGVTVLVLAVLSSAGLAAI
T3 sequence (Q6PCT8 57-159): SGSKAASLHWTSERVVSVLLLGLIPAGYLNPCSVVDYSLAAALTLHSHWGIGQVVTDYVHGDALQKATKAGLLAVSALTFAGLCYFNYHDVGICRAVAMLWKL

Row | SMILES | inhibition at 2.5 µM ([2]; Table 7, read-out: IIIQO) | IIIQO [2] | inhibition at 2.5 µM ([2]; Table 9, read-out: IIIQo) | inhibition at 2.5 µM [5] | SDH ([5]; Table 8) | SDH ([5]; Table 9) | inhibition [6] | GPDH ([6]; Table 8) | GPDH ([6]; Table 9) | % Reduction in ROS production (IQ) [1] | IQ ([1]; Table 7) | IQ ([1]; Table 8) | IQ ([1]; Table 9) | inhibition at 2.5 µM [3] | IF ([3]; Table 8) | IF ([3]; Table 9) | ΔΨm ([4]; Table 8, glutamate) | ΔΨm ([4]; Table 9, glutamate) | also measured
1 | CC(C)(C)NS(=O)(=O)c1ccc2c(c1)C(=O)c1ccccc1C2=O [Compound 1] | -1% | 1.0 | -1% | 8.2% | −8.2 | −8.2 | -4.1% | 4.1 | 4.1 | −60.6% | −60.6 | −60.6 | −60.6 | -10% | 10.0 | 10.0 | −1.5 | −1.5 | –
2 | CCSC1=C(C#N)C2(CCCC2)C(C#N)C(=O)N1 (stereo not shown) [Compound 2] | -1.9% | 1.9 | -1.9% | -2.6% | 2.6 | 2.6 | 0.1% | −0.1 | −0.1 | −52.5% | −52.5 | −52.5 | −52.5 | 7% | −7.0 | −7.0 | −3.4 | −3.4 | –
3 | CC(C)(C)C1=NN(c2c(Cl)cc(Cl)cc2Cl)C(=O)C1 [Compound 3] | -1% | 1.0 | -1% | 6.8% | −6.8 | −6.8 | 0.1% | −0.1 | −0.1 | −52.4% | −52.4 | −52.4 | −52.4 | -0.5% | 0.5 | 0.5 | 1.2 | 1.2 | –
4 | O=S(=O)(Nc1ccc(Br)cc1)c1ccc(C2CCCCC2)cc1 [Compound 8] | -7.6% | 7.6 | -7.6% | -0.4% | 0.4 | 0.4 | 1.8% | −1.8 | −1.8 | −36.3% | −36.3 | −36.3 | −36.3 | 4.2% | −4.2 | −4.2 | −0.3 | −0.3 | –
5 | Cc1ccccc1NS(=O)(=O)c1ccc(C2CCCCC2)cc1 [Compound 9] | 2.7% | −2.7 | 2.7% | -0.3% | 0.3 | 0.3 | -1% | 1.0 | 1.0 | −31.2% | −31.2 | −31.2 | −31.2 | -0.4% | 0.4 | 0.4 | −0.1 | −0.1 | –
6 | CC(=O)Nc1ccc(S(=O)(=O)Nc2cccc(C)c2)cc1 [Compound 10] | 2.8% | −2.8 | 2.8% | -1% | 1.0 | 1.0 | 4.3% | −4.3 | −4.3 | −24.1% | −24.1 | −24.1 | −24.1 | -3.3% | 3.3 | 3.3 | −0.2 | −0.2 | –
7 | CCCCN(Cc1ccccc1)Cc1cc(OC)c(OC)cc1[N+](=O)[O-] [Compound 79] | – | −19 | – | – | – | – | – | −1 | – | – | – | 0 | – | – | −17 | – | 1 | – | % Reduction in ROS production (IIIQO) ([2]; Table 4, 5 mM succinate, 4 μM rotenone, 2.5 μM antimycin A, compounds 2.5 μM, percent change from DMSO): −19%; % Reduction in ROS production (IF) ([3]; Table 3, 5 mM glutamate, 5 mM malate, 4 μM rotenone, compounds 2.5 μM, percent change from DMSO, positive control −100%): −17%

The next lines start with results.

Row | inhibition at 2.5 µM ([2]; Table 7, read-out: IIIQO) | IIIQO [2] | inhibition at 2.5 µM ([2]; Table 9, read-out: IIIQo) | inhibition at 2.5 µM [5] | SDH ([5]; Table 8) | SDH ([5]; Table 9) | inhibition [6] | GPDH ([6]; Table 8) | GPDH ([6]; Table 9) | SMILES | % Reduction in ROS production (IQ) [1] | IQ ([1]; Table 7) | IQ ([1]; Table 8) | IQ ([1]; Table 9) | inhibition at 2.5 µM [3] | IF ([3]; Table 8) | IF ([3]; Table 9) | ΔΨm ([4]; Table 8, glutamate) | ΔΨm ([4]; Table 9, glutamate) | also measured
8 | 3.6% | −3.6 | 3.6% | -2.3% | 2.3 | 2.3 | -0.7% | 0.7 | 0.7 | CC(C)Cc1ccc(C(C)C(=O)Nc2ccccc2O)cc1 (stereo not shown) [Compound 5] | −40.0% | −40.0 | −40.0 | −40.0 | -0.2% | 0.2 | 0.2 | −3.5 | −3.5 | –
9 | 3.4% | −3.4 | 3.4% | 1.1% | −1.1 | −1.1 | 2.3% | −2.3 | −2.3 | Cc1ccc(NS(=O)(=O)c2ccc(C3CCCCC3)cc2)cc1 [Compound 6] | −38.6% | −38.6 | −38.6 | −38.6 | -3.6% | 3.6 | 3.6 | 0.0 | 0.0 | –
10 | -9.2% | 9.2 | -9.2% | -2.1% | 2.1 | 2.1 | -5.6% | 5.6 | 5.6 | C=CCSc1nc(N)c(C#N)c(CC)c1C#N [Compound 7] | −36.5% | −36.5 | −36.5 | −36.5 | -1.3% | 1.3 | 1.3 | −0.5 | −0.5 | –
11 | 1.9% | −1.9 | 1.9% | 0.2% | −0.2 | −0.2 | 5% | −5.0 | −5.0 | COc1ccc(NS(=O)(=O)c2cccc(C(=O)Nc3ccc(C)cc3)c2)cc1 [Compound 11] | −23.8% | −23.8 | −23.8 | −23.8 | -3.3% | 3.3 | 3.3 | −0.4 | −0.4 | –
12 | -0.2% | 0.2 | -0.2% | 0.1% | −0.1 | −0.1 | -0.5% | 0.5 | 0.5 | Cc1ccccc1NS(=O)(=O)c1ccc(-c2ccc(S(=O)(=O)Nc3ccccc3C)cc2)cc1 [Compound 12] | −20.7% | −20.7 | −20.7 | −20.7 | 1.7% | −1.7 | −1.7 | −0.5 | −0.5 | –
13 | 5.7% | −5.7 | 5.7% | – | – | – | 13.4% | −13.4 | −13.4 | CCN1CCN(C/C=C/c2ccc(N(C)C)cc2)CC1 [Compound 48] | – | −2.9 | −2.9 | −2.9 | 6.5% | −6.5 | −6.5 | 0.0 | 0.0 | inhibition at 2.5 µM ([6]; Table 6, 25 mM glycerol phosphate, rotenone, antimycin A, malonate, myxothiazol, compounds 2.5 μM, scaled to IQ positive controls, read-out: % Reduction in ROS Production (GPDH)): 13.4%
